Molecular target: Recombinant Human Poly(ADP-Ribose) Polymerase (PARP), PARP-1 (Homo sapiens (Human), UniProt P09874)
Settings: read-out: PARP-1 (Ki); Table 1; text calls the values EC50s

Chain of Recombinant Human Poly(ADP-Ribose) Polymerase (PARP), PARP-1 (P09874 whole entry): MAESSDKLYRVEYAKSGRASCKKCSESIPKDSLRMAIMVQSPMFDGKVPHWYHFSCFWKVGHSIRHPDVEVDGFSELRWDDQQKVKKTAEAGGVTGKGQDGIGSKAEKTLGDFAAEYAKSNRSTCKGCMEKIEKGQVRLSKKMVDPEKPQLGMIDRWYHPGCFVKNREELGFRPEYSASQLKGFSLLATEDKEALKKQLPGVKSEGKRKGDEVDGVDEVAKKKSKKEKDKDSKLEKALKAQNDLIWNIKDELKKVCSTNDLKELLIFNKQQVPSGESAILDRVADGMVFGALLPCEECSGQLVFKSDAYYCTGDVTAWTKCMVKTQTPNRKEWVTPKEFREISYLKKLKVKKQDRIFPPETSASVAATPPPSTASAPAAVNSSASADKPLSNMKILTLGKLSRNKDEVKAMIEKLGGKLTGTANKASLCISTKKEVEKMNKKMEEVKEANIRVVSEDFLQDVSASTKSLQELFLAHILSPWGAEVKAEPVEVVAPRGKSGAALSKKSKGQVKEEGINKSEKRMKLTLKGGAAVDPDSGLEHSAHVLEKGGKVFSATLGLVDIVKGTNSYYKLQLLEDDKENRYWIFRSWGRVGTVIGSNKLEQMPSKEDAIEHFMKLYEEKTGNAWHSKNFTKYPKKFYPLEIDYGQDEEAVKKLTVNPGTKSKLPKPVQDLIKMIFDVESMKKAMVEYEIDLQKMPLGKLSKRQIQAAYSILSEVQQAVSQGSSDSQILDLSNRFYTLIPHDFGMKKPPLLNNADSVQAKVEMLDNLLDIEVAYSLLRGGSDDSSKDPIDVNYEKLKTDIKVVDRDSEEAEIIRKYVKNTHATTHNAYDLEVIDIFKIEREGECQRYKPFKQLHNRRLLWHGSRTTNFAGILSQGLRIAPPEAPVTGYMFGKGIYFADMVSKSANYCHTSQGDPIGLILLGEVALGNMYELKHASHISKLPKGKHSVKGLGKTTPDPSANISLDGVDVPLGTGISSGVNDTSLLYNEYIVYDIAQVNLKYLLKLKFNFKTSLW

SMILES: CN(C)S(=O)(=O)Nc1cccc(Cc2n[nH]c(=O)c3c2CCCC3)c1 [Example 97, N,N-dimethyl-N′-(3-((4-oxo-3,4,5,6,7,8-hexahydrophthalazin-1-yl)methyl)phenyl)sulfamide]
- Ki: 390 nM

SMILES: CC(c1ccc(F)c(N2CCC2=O)c1)c1n[nH]c(=O)c2c1CCCC2 (stereo not drawn) [Example 451, 4-(1-(4-fluoro-3-(2-oxoazetidin-1-yl)phenyl)ethyl)-5,6,7,8-tetrahydrophthalazin-1(2H)-one]
- Ki: 56 nM

SMILES: O=C(Nc1cccc(Cc2n[nH]c(=O)c3c2CCCC3)c1)c1ccc[nH]1 [Example 200]
- Ki: 158 nM

SMILES: Cc1cccc(O)c1NC(=O)c1cccc(Cc2n[nH]c(=O)c3c2CCCC3)c1 [Example 348, N-(2-hydroxy-6-methylphenyl)-3-((4-oxo-3,4,5,6,7,8-hexahydrophthalazin-1-yl)methyl)benzamide]
- Ki: 259 nM

SMILES: CC[C@H](C(=O)Nc1cccc(Cc2n[nH]c(=O)c3c2CCCC3)c1)c1ccccc1 [Example 146, (2S)-N-(3-((4-oxo-3,4,5,6,7,8-hexahydrophthalazin-1-yl)methyl)phenyl)-2-phenylbutanamide]
- Ki: 678 nM

SMILES: O=c1[nH]nc(Cc2ccc(F)c(Cl)c2)c2c1CCCN2 [Example 450, 8-(3-chloro-4-fluorobenzyl)-2,3,4,6-tetrahydropyrido(2,3-d)pyridazin-5(1H)-one]
- Ki: 122 nM

SMILES: O=C(c1cccnc1)N1CCCN(C(=O)c2cc(Cc3n[nH]c(=O)c4c3NCCC4)ccc2F)CC1 [Example 683, 8-(4-fluoro-3-{[4-(pyridin-3-ylcarbonyl)-1,4-diazepan-1-yl]carbonyl}benzyl)-2,3,4,6-tetrahydropyrido[2,3-d]pyridazin-5(1H)-one]
- Ki: 2.6 nM

SMILES: COc1ccc(CCN(C)C(=O)c2cccc(Cc3n[nH]c(=O)c4c3CCCC4)c2)cc1OC [Example 427, N-(2-(3,4-dimethoxyphenyl)ethyl)-N-methyl-3-((4-oxo-3,4,5,6,7,8-hexahydrophthalazin-1-yl)methyl)benzamide]
- Ki: 22 nM

SMILES: COc1cc(C(=O)Nc2cccc(Cc3n[nH]c(=O)c4c3CCCC4)c2)ccc1C [Example 227, 3-methoxy-4-methyl-N-(3-((4-oxo-3,4,5,6,7,8-hexahydrophthalazin-1-yl)methyl)phenyl)benzamide]
- Ki: 60 nM

SMILES: O=C(NCCc1ccccc1F)c1cccc(Cc2n[nH]c(=O)c3c2CCCC3)c1 [Example 385, N-(2-(2-fluorophenyl)ethyl)-3-((4-oxo-3,4,5,6,7,8-hexahydrophthalazin-1-yl)methyl)benzamide]
- Ki: 42 nM

SMILES: O=C1CCN1c1ccc(Cc2n[nH]c(=O)c3c2CCCC3)cn1 [Example 105, 4-((6-(2-oxoazetidin-1-yl)pyridin-3-yl)methyl)-5,6,7,8-tetrahydrophthalazin-1(2H)-one]
- Ki: 725 nM

SMILES: COc1ccc(N2CCN(C(=O)c3cc(Cc4n[nH]c(=O)c5c4NCCC5)ccc3F)CC2)cc1 [Example 599, 8-(4-fluoro-3-{[4-(4-methoxyphenyl)piperazin-1-yl]carbonyl}benzyl)-2,3,4,6-tetrahydropyrido[2,3-d]pyridazin-5(1H)-one]
- Ki: 1.1 nM

SMILES: O=C(NCCc1cccnc1)c1cccc(Cc2n[nH]c(=O)c3c2CCCC3)c1 [Example 380, 3-((4-oxo-3,4,5,6,7,8-hexahydrophthalazin-1-yl)methyl)-N-(2-pyridin-3-ylethyl)benzamide]
- Ki: 71 nM

SMILES: O=C(c1cccc(Cc2n[nH]c(=O)c3c2CCCC3)c1)N1CCN(c2ncccn2)CC1 [Example 442, 4-(3-((4-pyrimidin-2-ylpiperazin-1-yl)carbonyl)benzyl)-5,6,7,8-tetrahydrophthalazin-1(2H)-one]
- Ki: 0.8 nM

SMILES: O=C(c1cc(Cc2n[nH]c(=O)c3c2NCCC3)ccc1F)N1CCN(CCOc2ccccc2)CC1 [Example 561, 8-(4-fluoro-3-{[4-(2-phenoxyethyl)piperazin-1-yl]carbonyl}benzyl)-2,3,4,6-tetrahydropyrido[2,3-d]pyridazin-5(1H)-one]
- Ki: 3 nM
